Assay [1] has as its system Puccinia triticina strain BT06M215. Nature of the assay: in planta intensity of infection of wheat leaves by Puccinia triticina. In kind it is in vivo. The text has this:
This experiment illustrates the effect of the crude extract (YE) of P. aphidis, synthetic (E)-2-octyl-2-pentenedioic acid (PA), extracted 2-octyl-2 pentenedioic acid from Pseudozyma aphidis in methanol, Rhapsody® (Bacillus subtilis) and Amistart (azoxystrobin) at 0.1% on the intensity of infection of wheat leaf fragments by uredospores of Puccinia triticina strain BT06M215. Rhapsody® (Bacillus subtilis) and Amistar® (azoxystrobin) are commercially available fungicidal solutions. P. titicina strain BT06M215 was isolated from untreated wheat leaves in France.
All fungicidal products were prepared in a volume of water corresponding to 200 L/ha. […]
For each experimental condition tested, 18 replicates of one wheat leaf were tested. […] Disease assessment (intensity of infection) on the first leaf of each wheat plantlets is monitored at 8 to 15 days post inoculation.

For assay [2], the system named is Phytophthora infestans strain Pi61. Type of assay: in vivo. To be noted: in methanol, applied at 150 g/ha; Shirlan applied at 200 g/ha (FIGS. 10a, 10b).
For a further assay, the system named is P. infestans. In kind it is cell-based, Phytophthora infestans.
For assay [3], the system named is B. cinerea. Nature of the assay: bio-assay with tomato leaves against B. cinerea. In kind it is in vivo, Botrytis cinerea. An excerpt:
The untreated control (#2, only 70% ethanol) was taken as a reference for the maximal infection rate.

Assay [4] has as its system Zymoseptoria tritici strain Mg Tri-R6. In kind it is in vivo. To be noted: wheat; in methanol, applied at 100 gr/ha; Proline applied at 0.8 L/ha (FIGS. 7a, 7b).
The subject of assay [5] is B. cinerea. Nature of the assay: bio-assay in liquid medium (PDB) with B. cinerea as indicator strain. To be noted: at both a pH of 3 and a pH of 5 (FIG. 1). In kind it is cell-based, Botrytis cinerea. On the procedure: 2-octyl-2 pentenedioic acid was also evaluated for antifungal activity using bio-assay in liquid medium using B. cinerea as an indicator strain. The bio-assay was carried out in PDB liquid medium.
The bio-assay for determination of antifungal activity was set-up based on the procedure as described in Stammler and Speakman, 2006. Microtiter Method to Test the Sensitivity of Botrytis cinerea to Boscalid. Journal of Phytopathology, 154, 7-8, p 508-510. This bio-assay is based on dilution of the antimicrobial agent and determination of growth inhibition of a sensitive indicator strain, in this case Botrytis cinerea. The bio-assay was performed in 96-well microtiter plates and included micro-dilutions of the antimicrobial agent in a liquid growth medium, where each well was inoculated with a standardized number of fungal spores of the indicator strain. After incubation (no agitation, 18° C. in darkness for 5 days), the results were obtained by measurement of fungal growth by photometer at 405 nm and the values were corrected by comparison with the blanks (cultures without the antimicrobial compound). The ED (effective dose) values are compared with reference standard fungicides.

Each structure is given as a SMILES string. Where two headings read alike, the source gives them in different places.

Regarding `CCCCCCCC/C(=C\CC(=O)O)C(=O)O` [2-octyl-2 pentenedioic acid (synthetic), (E)-2-octyl-2-pentenedioic acid], the “efficacy against Puccinia triticina compared to Rhapsody” value in assay [1] (Rhapsody applied at 2.0 L/ha (FIGS. 3a, 3b)) is “comparable efficacy”. Also, the “efficacy against Phytophthora infestans compared to Shirlan (fluazinam)” value in assay [2] is given as “comparable efficacy”. For the same molecule, the ED90 was 41 ppm with P. infestans (pH 4.6, V8 juice liquid media); 42 ppm in the assay on P. infestans (pH 6.2, V8 juice liquid media); “Not detected” with P. infestans (pH 8.0, V8 juice liquid media).

In the case of `CC(=O)O` [Sample 3, Acetic acid], the “effect on B. cinerea infection (in words)” value in the assay with B. cinerea [3] is recorded as “inhibited B. cinerea infection”.

As to `CCCCCCCCC(=CCC(=O)O)C(=O)O` [2-octyl-2 pentenedioic acid], in assay [1] (in methanol, applied at 100 g/ha, Amistar applied at 1 L/ha (FIGS. 4a, 4b)), the “efficacy against Puccinia triticina compared to Amistar” value is on record as “comparable efficacy”. In addition, the “efficacy against Zymoseptoria tritici compared to Proline” value in assay [4] is “comparable efficacy”. For the same molecule, the ED90 in the assay with P. infestans (pH 4.6, V8 juice liquid media) was 37 ppm; in the assay on P. infestans (pH 6.2, V8 juice liquid media) it was 41 ppm; with P. infestans (pH 8.0, V8 juice liquid media), “Not detected”. In addition, the “efficacy against B. cinerea” value in the assay with B. cinerea [5] is “excellent efficacy”.

Source of the values: patent US20230371507A1 (priority 2020, published 2023).
